Laboratory results reported in paper PMC11672294, “The Antipsychotic Drug Aripiprazole Suppresses Colorectal Cancer by Targeting LAMP2a to Induce RNH1/miR‐99a/mTOR‐Mediated Autophagy and Apoptosis” (Advanced Science, 2024).
Structures can show the parent of a compound that is named as a salt. Starred links: 1 amine or outer side, 2 acyl side, 3 side chain; linkers in the order of their positions; H or OH if unused. Positions of bridges follow the written chain, without caps; N, C: chain ends. Non-standard residues stand in square brackets, D forms with d. Residues, ends and D or L forms follow the SMILES beside them. *: point of attachment. hTyr(3S-OH,4S-OH,3'-OSO3H) = N[C@H](C(=O)O)[C@H](O)[C@@H](O)c1ccc(O)c(OS(=O)(=O)O)c1; Orn(4R-OH,5R-OH) = O=C([C@H](C[C@@H](O)[C@@H](O)N[*:3])N[*:1])[*:2]; Pro(3S-OH,4S-Me) = C[C@H]1CN[C@H](C(=O)O)[C@H]1O; X1 = CCCCCOc1ccc(-c2cc(-c3ccc(C(=O)*)cc3)no2)cc1; Gln(3R-OH) = NC(=O)C[C@@H](O)[C@H](N)C(=O)O; Hyp = O=C(O)[C@@H]1C[C@@H](O)CN1

These compounds were tested on HT29. Conditions: 72 h, relative to DMSO, 10 µM, Relative cell viability (%).
Method in brief: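 HT29 viability used WST-1 reduction (2 h, 37 °C, A450) after 72 h of treatment; screening compounds were tested singly at 10 µM, with dimethyl sulfoxide as the comparison.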

| SMILES | Relative cell viability (%) [%] |
| --- | --- |
| CCOC(=O)C1=C(COCCN)NC(C)=C(C(=O)OC)C1c1ccccc1Cl (stereo not drawn) [Amlodipine besylate (Norvasc)] | 75.42 |

Same assay, conditions: 72 h, relative to DMSO; 10 µM

| SMILES | Relative cell viability (%) [%] |
| --- | --- |
| CCCCCCCCCCCC1=C(O)C(=O)C=C(O)C1=O [Embelin] | 140.6 |
| CCc1cc(/C(C)=N/OCc2ccc(C3CCCCC3)c(C(F)(F)F)c2)ccc1CN1CC(C(=O)O)C1 [BAF312 (Siponimod)] | 107.265 |
| C#CCN[C@@H]1CCc2ccccc21 [Rasagiline Mesylate] | 103.1 |
| CNC1CCCN(c2c(F)cc3c(=O)c(C(=O)O)cn(C4CC4)c3c2OC)C1 (stereo not drawn) [Balofloxacin] | 111.9 |
| C=CN1CCCC1=O [Povidone iodine] | 91.88 |
| C[C@@H]1CN(c2c(F)c(N)c3c(=O)c(C(=O)O)cn(C4CC4)c3c2F)C[C@H](C)N1 [Sparfloxacin] | 75.42 |
| CC12CC3CC(C)(C1)CC(N)(C3)C2 [Memantine HCl] | 108.7 |
| CC(C)(C)C(=O)C(Oc1ccc(Cl)cc1)n1ccnc1 (stereo not drawn) [Climbazole] | 83.94 |
| Nc1nc2c(ncn2CCC(CO)CO)c(=O)[nH]1 [Penciclovir] | 100.303 |
| CC(S)C(=O)NCC(=O)O (stereo not drawn) [Tiopronin] | 149.2 |
| COC(=O)C1=C(C)NC(C)=C(C(=O)OCCN(C)Cc2ccccc2)C1c1cccc([N+](=O)[O-])c1 (stereo not drawn) [Nicardipine HCl] | 83.03 |
| S=C(NCc1ccc2c(c1)OCO2)N1CCN(c2ncnc3c2oc2ccccc23)CC1 [Amuvatinib (MP-470)] | 66.51 |
| CC[C@H]1OC(=O)[C@H](C)[C@@H](O[C@H]2C[C@@](C)(OC)[C@@H](O)[C@H](C)O2)[C@H](C)[C@@H](O[C@@H]2O[C@H](C)C[C@H](N(C)C)[C@H]2O)[C@](C)(O)C[C@@H](C)CN(C)[C@H](C)[C@@H](O)[C@]1(C)O [Azithromycin] | 33.47 |
| CCOC(=O)c1c(C)n(C)c2ccc(O)cc12 [Mecarbinate] | 130.3 |
| C=CC(=O)N1CCC[C@@H](n2nc(-c3ccc(Oc4ccccc4)cc3)c3c(N)ncnc32)C1 [Ibrutinib (PCI-32765)] | 53.4 |
| Cc1ccc(Cl)c(Nc2ccccc2C(=O)O)c1Cl [Meclofenamate Sodium] | 83.03 |
| C/C(O)=C(\C#N)C(=O)Nc1ccc(C(F)(F)F)cc1 [Teriflunomide] | 75.76 |
| CC1=NN(c2ccc(C)c(C)c2)C(=O)/C1=N\Nc1cccc(-c2cccc(C(=O)O)c2)c1O [Eltrombopag Olamine] | 122 |
| O=c1[nH]c(=O)n([C@H]2C[C@H](O)[C@@H](CO)O2)cc1I [Idoxuridine] | 86.86 |
| CS(=O)(=O)CCNCc1ccc(-c2ccc3ncnc(Nc4ccc(OCc5cccc(F)c5)c(Cl)c4)c3c2)o1 [Lapatinib] | 94.3 |
| CC(C)(O)c1ccccc1CC[C@@H](SCC1(CC(=O)O)CC1)c1cccc(/C=C/c2ccc3ccc(Cl)cc3n2)c1 [Montelukast Sodium] | 74.85 |
| CCCCCOc1ccc(-c2cc(-c3ccc(C(=O)N[C@H]4C[C@@H](O)[C@@H](O)NC(=O)[C@@H]5[C@@H](O)[C@@H](C)CN5C(=O)[C@H]([C@H](O)CC(N)=O)NC(=O)[C@H]([C@H](O)[C@@H](O)c5ccc(O)c(OS(=O)(=O)O)c5)NC(=O)[C@@H]5C[C@@H](O)CN5C(=O)[C@H]([C@@H](C)O)NC4=O)cc3)no2)cc1 [Micafungin Sodium] (X1-[Orn(4R-OH,5R-OH)]T[Hyp][hTyr(3S-OH,4S-OH,3'-OSO3H)][Gln(3R-OH)][Pro(3S-OH,4S-Me)]; lactam 1-C) | 77.58 |
| OCCOCCN1CCN(C2=Nc3ccccc3Sc3ccccc32)CC1 [Quetiapine Fumarate] | 47.46 |

| SMILES | Relative cell viability (%) [%] |
| --- | --- |
| C[C@H]1O[C@H](O[C@H]2[C@H](O)[C@@H](O)[C@@H](O[C@H]3[C@H](O)[C@@H](O)C(O)O[C@@H]3CO)O[C@@H]2CO)[C@H](O)[C@@H](O)[C@@H]1N[C@H]1C=C(CO)[C@@H](O)[C@H](O)[C@H]1O (stereo partly drawn) [Acarbose] | 103.9 |
| OC[C@@H](O)[C@@H](O)[C@H](O)[C@@H](O)CO [Sorbitol] | 125 |
| COC(=O)C1=C(C)NC(C)=C(C(=O)O[C@@H]2CCCN(Cc3ccccc3)C2)[C@@H]1c1cccc([N+](=O)[O-])c1 (racemic) [Benidipine HCl] | 75.78 |
| CCOC(=O)c1ncn2c1CN(C)C(=O)c1cc(F)ccc1-2 [Flumazenil] | 80.53 |
| Cc1c(Cl)cccc1Nc1ccccc1C(=O)O [Tolfenamic Acid] | 166.2 |
| Cc1ncc([N+](=O)[O-])n1CCO [Metronidazole] | 113.4 |
| O=c1sn(-c2cccc3ccccc23)c(=O)n1Cc1ccccc1 [Tideglusib] | 51.94 |
| NC(=O)c1cnccn1 [Pyrazinamide] | 83.05 |
| C=C(c1ccc(C(=O)O)cc1)c1cc2c(cc1C)C(C)(C)CCC2(C)C [Bexarotene] | 134.4 |
| O=C(CCCN1CCC(O)(c2ccc(Cl)cc2)CC1)c1ccc(F)cc1 [Haloperidol] | 29.34 |
| CC(NC(C)(C)C)C(=O)c1cccc(Cl)c1 (stereo not drawn) [Amfebutamone HCl] | 104.9 |
| CC1(C)Cc2c(-c3ccccc3)c(-c3ccc(Cl)cc3)c(CC(=O)O)n2C1 [Licofelone] | 137.9 |
| CC(C)Nc1cc(-c2c[nH]c(C(=O)N[C@H](CO)c3cccc(Cl)c3)c2)c(Cl)cn1 [Ulixertinib (BVD-523, VRT752271)] | 30.34 |
| Clc1ccc(C(Cn2ccnc2)OCc2ccc(Sc3ccccc3)cc2)c(Cl)c1 (stereo not drawn) [Fenticonazole Nitrate] | 58.4 |
| Cc1cccc(-c2nn3c(c2-c2ccnc4ccc(C(N)=O)cc24)CCC3)n1 [LY2157299] | 106.7 |
| CCCCOc1cc(C(=O)OCCN(CC)CC)ccc1N [Oxybuprocaine HCl] | 56.67 |
| CC(C(=O)O)c1ccc(CC2CCCC2=O)cc1 (stereo not drawn) [Loxoprofen] | 82.91 |
| CC(C)(Oc1ccc(Cl)cc1)C(=O)O [Clofibric Acid] | 90.303 |
| O=C1c2ccccc2C(=O)C1c1ccccc1 [Phenindione] | 136.8 |
| COc1ncc(-c2ccc3nccc(-c4ccnnc4)c3c2)cc1NS(=O)(=O)c1ccc(F)cc1F [GSK2126458 (GSK458)] | 12.62 |
| CCc1cc(C(N)=S)ccn1 [Ethionamide] | 62.71 |
| Cc1c(C(=O)Nc2ccc(N3C[C@@H](C)O[C@@H](C)C3)nc2)cccc1-c1ccc(OC(F)(F)F)cc1 [LDE225 (NVP-LDE225,Erismodegib)] | 111.4 |
| CC1(C)[C@H](C(=O)O)N2C(=O)C[C@H]2S1(=O)=O [Sulbactam] | 199.5 |

| SMILES | Relative cell viability (%) [%] |
| --- | --- |
| COc1cc(C)c(/C=C/C(C)=C/C=C/C(C)=C/C(=O)O)c(C)c1C [Acitretin] | 60.28 |
| N[C@@H](Cc1cc(I)c(Oc2cc(I)c(O)c(I)c2)c(I)c1)C(=O)O [L-Thyroxine] | 67.96 |
| CN(Cc1cc(Br)cc(Br)c1N)C1CCCCC1 [Bromhexine HCl] | 122.9 |
| NC12CC3CC(CC(C3)C1)C2 [Amantadine HCl] | 105.5 |
| CCN(CC)CCNC(=O)c1cc(Cl)c(N)cc1OC [MetoclopraMide HCl] | 75.76 |
| CCN(Cc1ccncc1)C(=O)C(CO)c1ccccc1 (stereo not drawn) [Tropicamide] | 144.5 |
| CC(C)C(=O)Oc1ccc(CO)cc1[C@H](CCN(C(C)C)C(C)C)c1ccccc1 [Fesoterodine Fumarate] | 112.6 |
| FC(F)(F)c1ccc(/C=C/c2nc(COc3ccc(CCCCn4ccnn4)cc3)co2)cc1 [Mubritinib (TAK 165)] | 116.7 |
| CN(C)/N=N/c1[nH]cnc1C(N)=O [Dacarbazine] | 91.43 |
| CN(C)[C@@H]1C(O)=C(C(N)=O)C(=O)[C@@]2(O)C(O)=C3C(=O)c4c(O)ccc(Cl)c4[C@@H](O)[C@H]3C[C@@H]12 [Demeclocycline HCl] | 74.85 |
| Cc1nnc(NS(=O)(=O)c2ccc(N)cc2)s1 [Sulfamethizole] | 202.3 |
| CC[C@H](C)C(=O)O[C@H]1C[C@H](O)C=C2C=C[C@H](C)[C@H](CC[C@@H](O)C[C@@H](O)CC(=O)O)[C@H]21 [Pravastatin sodium] | 89.81 |
| CNC(=O)[C@@H](NC(=O)[C@H](CC(C)C)[C@H](O)C(=O)NO)C(C)(C)C [Marimastat(BB-2516)] | 121.4 |
| CN1[C@@H]2CC[C@H]1C[C@@H](OC(=O)c1c[nH]c3ccccc13)C2 [Tropisetron] | 115.5 |
| CN(C)C/C=C/C(=O)Nc1cc2c(Nc3ccc(F)c(Cl)c3)ncnc2cc1O[C@H]1CCOC1 [Afatinib (BIBW2992) Dimaleate] | 20.09 |
| C=CC(=O)N1CCC(Oc2cc3c(Nc4ccc(Cl)c(Cl)c4F)ncnc3cc2OC)CC1 [Poziotinib (HM781-36B)] | 68.8 |
| COc1ccc(C[C@H](N)C(=O)N[C@H]2[C@@H](O)[C@H](n3cnc4c(N(C)C)ncnc43)O[C@@H]2CO)cc1 [Puromycin 2HCl] | 0 |
| CCN1CCN(Cc2ccc(Nc3ncc(F)c(-c4cc(F)c5nc(C)n(C(C)C)c5c4)n3)nc2)CC1 [LY2835219] | 5.983 |
| CN1CCC[C@@H]1CCO[C@](C)(c1ccccc1)c1ccc(Cl)cc1 [Clemastine Fumarate] | 16.95 |
| COCCOC(=O)C1=C(C)NC(C)=C(C(=O)OC(C)C)C1c1cccc([N+](=O)[O-])c1 (stereo not drawn) [Nimodipine] | 53.81 |
| CCn1c(=O)c(-c2cc[nH]n2)cc2c(C)nc(N)nc21 [Voxtalisib (XL765, SAR245409)] | 31.62 |
| CCCCCCCCc1ccc(CCC(N)(CO)CO)cc1 [Fingolimod (FTY720) HCl] | 0 |
